Where a name gives a salt, the structure may show the parent alone.
Experiments:
[1] = system: children and young adults with Dravet syndrome; assay: Study 1: Clinical Global Impression of Improvement (CGI-I); type: in vivo, Human
Experimental: CGI-S and CGI-I ratings were made by clinical investigators and parent/caregivers in a series of phase III trials of fenfluramine. CGI changes were measured in two randomized, controlled trials with results reported herein. Study 1 was conducted as described in Example 1 and CGI ratings were made according to a set schedule of visits made to the clinic. Tables of results and bar graphs of the statistical analyses of CGI ratings for Study 1 at visit twelve (day 113) are provided in FIGS. 1-4. […] Similar results were obtained with investigator CGI-I rating.
In Study 1, subjects were assessed using Clinical Global Impression (CGI), allowing the parent/caregiver and principal investigator to assess improvement, as well as the Quality of Life in Childhood Epilepsy (QOLCE) Scale and the Pediatric Quality of Life Inventory (PedsQL) to measure changes in the quality of life of the subject. Comparisons between treatment groups were made using Wilcoxon rank sum tests.
(§1) The CGI scale measures the change in the subject's clinical status from a specific point in time, i.e., the Baseline Period (and also referred to as the CGI-S, an initial ranking of severity). The CGI rating scale permits a global evaluation of the subject's improvement over time.

[2] = system: subjects with Dravet syndrome; assay: Study 1503: open-label long-term extension, CGI-I at baseline and final visit; type: in vivo, Human
Experimental: Study 1503 was an open-label, long-term safety study of ZX008 in subjects with Dravet syndrome who successfully completed 14 weeks of treatment in 1501, 1502, or 1504 Cohorts 1 and 2. […] CGI-S(baseline scores) were determined at entry into 1503 (i.e., after completing a blinded 16 week trial) and then again at each patient's final visit. FIGS. 7 and 8, and Tables 3 and 4 present numbers of patients having each of the 7 ratings and statistical calculations of improvements.
as §1

## CCNC(C)Cc1cccc(C(F)(F)F)c1 (stereo not shown) [ZX008, fenfluramine hydrochloride]
[1]; 0.2 mg/kg/day, n = 39
  CGI-I Investigator rating 'very much improved' or 'much improved', %: (41.0%)
  CGI-I Parent/caregiver rating 'very much improved' or 'much improved', %: (41.0%)
[1]; 0.8 mg/kg/day, n = 40
  CGI-I Investigator rating 'very much improved' or 'much improved', %: (55.0%)
  CGI-I Parent/caregiver rating 'very much improved' or 'much improved', %: (55.0%)
[2]; OLE Baseline
  CGI-I investigator, 1 = Very much improved, % of subjects: (15.8) %
  CGI-I investigator, 1 = Very much improved, N of subjects: 35
  CGI-I investigator, 2 = Much improved, % of subjects: (24.4) %
  CGI-I investigator, 2 = Much improved, N of subjects: 54
  CGI-I investigator, 3 = Minimally improved, % of subjects: (20.8) %
  CGI-I investigator, 3 = Minimally improved, N of subjects: 46
  CGI-I investigator, 4 = No change, % of subjects: (32.6) %
  CGI-I investigator, 4 = No change, N of subjects: 72
  CGI-I investigator, 5 = Minimally worse, % of subjects: (5.0) %
  CGI-I investigator, 5 = Minimally worse, N of subjects: 11
  CGI-I investigator, 6 = Much worse, % of subjects: (1.4) %
  CGI-I investigator, 6 = Much worse, N of subjects: 3
  CGI-I investigator, 7 = Very much worse, % of subjects: (0.0) %
  CGI-I investigator, 7 = Very much worse, N of subjects: 0
  CGI-I investigator, Improved (1, 2, 3), %: (61.1) %
  CGI-I investigator, Much/very much improved (1, 2), %: (40.3) %
  CGI-I parent/caregiver, 1 = Very much improved, % of subjects: (16.4) %
  CGI-I parent/caregiver, 1 = Very much improved, number of subjects: 37
  CGI-I parent/caregiver, 2 = Much improved, % of subjects: (21.8) %
  CGI-I parent/caregiver, 2 = Much improved, number of subjects: 49
  CGI-I parent/caregiver, 3 = Minimally improved, % of subjects: (19.1) %
  CGI-I parent/caregiver, 3 = Minimally improved, number of subjects: 43
  CGI-I parent/caregiver, 4 = No change, % of subjects: (26.7) %
  CGI-I parent/caregiver, 4 = No change, number of subjects: 60
  CGI-I parent/caregiver, 5 = Minimally worse, % of subjects: (10.7) %
  CGI-I parent/caregiver, 5 = Minimally worse, number of subjects: 24
  CGI-I parent/caregiver, 6 = Much worse, % of subjects: (4.0) %
  CGI-I parent/caregiver, 6 = Much worse, number of subjects: 9
  CGI-I parent/caregiver, 7 = Very much worse, % of subjects: (1.3) %
  CGI-I parent/caregiver, 7 = Very much worse, number of subjects: 3
  CGI-I parent/caregiver, Improved (1, 2, 3), %: (57.3) %
  CGI-I parent/caregiver, Much/very much improved (1, 2), %: (38.2) %
[2]; OLE Baseline, N 221, 7-point scale
  CGI-I investigator rating, Median: 3.0
[2]; OLE Baseline, N 221, scale 1 very much improved to 7 very much worse
  CGI-I investigator rating, Mean: 2.9
[2]; OLE Baseline, N 225, 7-point scale
  CGI-I parent/caregiver rating, Median: 3.0
[2]; OLE Baseline, N 225, scale 1 very much improved to 7 very much worse
  CGI-I parent/caregiver rating, Mean: 3.1
[2]; OLE Final Visit
  CGI-I investigator, 1 = Very much improved, % of subjects: (27.6) %
  CGI-I investigator, 1 = Very much improved, N of subjects: 70
  CGI-I investigator, 2 = Much improved, % of subjects: (36.6) %
  CGI-I investigator, 2 = Much improved, N of subjects: 93
  CGI-I investigator, 3 = Minimally improved, % of subjects: (21.3) %
  CGI-I investigator, 3 = Minimally improved, N of subjects: 54
  CGI-I investigator, 4 = No change, % of subjects: (7.9) %
  CGI-I investigator, 4 = No change, N of subjects: 20
  CGI-I investigator, 5 = Minimally worse, % of subjects: (5.5) %
  CGI-I investigator, 5 = Minimally worse, N of subjects: 14
  CGI-I investigator, 6 = Much worse, % of subjects: (1.2) %
  CGI-I investigator, 6 = Much worse, N of subjects: 3
  CGI-I investigator, 7 = Very much worse, % of subjects: (0.0) %
  CGI-I investigator, 7 = Very much worse, N of subjects: 0
  CGI-I investigator, Improved (1, 2, 3), %: (85.4) %
  CGI-I investigator, Much/very much improved (1, 2), %: (64.2) %
  CGI-I parent/caregiver, 1 = Very much improved, % of subjects: (27.0) %
  CGI-I parent/caregiver, 1 = Very much improved, number of subjects: 67
  CGI-I parent/caregiver, 2 = Much improved, % of subjects: (35.5) %
  CGI-I parent/caregiver, 2 = Much improved, number of subjects: 88
  CGI-I parent/caregiver, 3 = Minimally improved, % of subjects: (19.8) %
  CGI-I parent/caregiver, 3 = Minimally improved, number of subjects: 49
  CGI-I parent/caregiver, 4 = No change, % of subjects: (7.7) %
  CGI-I parent/caregiver, 4 = No change, number of subjects: 19
  CGI-I parent/caregiver, 5 = Minimally worse, % of subjects: (5.2) %
  CGI-I parent/caregiver, 5 = Minimally worse, number of subjects: 13
  CGI-I parent/caregiver, 6 = Much worse, % of subjects: (4.0) %
  CGI-I parent/caregiver, 6 = Much worse, number of subjects: 10
  CGI-I parent/caregiver, 7 = Very much worse, % of subjects: (0.8) %
  CGI-I parent/caregiver, 7 = Very much worse, number of subjects: 2
  CGI-I parent/caregiver, Improved (1, 2, 3), %: (82.3) %
  CGI-I parent/caregiver, Much/very much improved (1, 2), %: (62.5) %
[2]; OLE Final Visit, n 248, 7-point scale
  CGI-I parent/caregiver rating, Median: 2.0
[2]; OLE Final Visit, n 248, scale 1 very much improved to 7 very much worse
  CGI-I parent/caregiver rating, Mean: 2.4
[2]; OLE Final Visit, n 254, 7-point scale
  CGI-I investigator rating, Median: 2.0
[2]; OLE Final Visit, n 254, scale 1 very much improved to 7 very much worse
  CGI-I investigator rating, Mean: 2.3

Source: US20200306210A1 (ZOGENIX INTERNATIONAL LIMITED, priority 2017, published 2020)
